This assay deals with STAT6 (Homo sapiens (Human), UniProt P42226). Nature of the assay: STAT6 degrader assay (HiBiT, HeLa LgBiT clone 4.14). The assay is classed as cell-based. As to conditions: HeLa LgBiT clone 4.14, 4-24 h; for DC50: geometric mean, given for compounds with >80% Emax, read-out: STAT6 degradation DC50; for Emax: read-out: STAT6 degradation Emax (%). Here is the method:
This was a HiBit based assay. A HeLa cell line stably transfected with a small protein, LgBit (Large Bit) was obtained from Promega. These cells express endogenous STAT6. A small 11 amino acid gene sequence (HiBiT) was inserted in the STAT6 gene using CRISPR technology. Once STAT6 protein is expressed in the cells, the HiBiT sequence will bind the LgBit in the cells resulting in a functional NanoBiT protein, giving a luminescent tag to STAT6, see FIG. 2.
Single cell clones were prepared and the clone 4.14 was selected for the assay based on that clone showing high luminescence, high STAT6 phosphorylation upon stimulation with IL-4, and inhibition of luminescence when cells were treated with STAT6 siRNA.
HeLa LgBiT clone 4.14 cells were suspended in DMEM with 10% FCS, 1% Pen/Strep, Na-pyrovate and Hygromycin B, at a concentration of 1.25*105 cells pr mL. 5000 cells were added pr well of a 384 well plate and 20 nL of compound was added by Echo® liquid handler. NN6394A (terfenadine, a toxic compound) was added to control wells at 50 μM concentration to establish the assay window. In these wells the cells are dead which equals 100% degradation of STAT6.
After 4-24 h of incubation at 37° C. under 5% CO2/95% air, 5 μL substrate (Nano-GLO®) was added to the wells and the plates were centrifuged and incubated for 0.5 h.
The luminescence in the wells as a measure of non-degraded STAT6 was measured in a plate reader (BMG Pherastar FSX). The measured DC50 (in nM) was determined.
The dose-response curves Examples 3p1, 3e50, 3e17, and 3e51 are shown below (where percent degradation is plotted vs. test compound concentration in M on a log-scale).

Chain of STAT6 (P42226 whole entry): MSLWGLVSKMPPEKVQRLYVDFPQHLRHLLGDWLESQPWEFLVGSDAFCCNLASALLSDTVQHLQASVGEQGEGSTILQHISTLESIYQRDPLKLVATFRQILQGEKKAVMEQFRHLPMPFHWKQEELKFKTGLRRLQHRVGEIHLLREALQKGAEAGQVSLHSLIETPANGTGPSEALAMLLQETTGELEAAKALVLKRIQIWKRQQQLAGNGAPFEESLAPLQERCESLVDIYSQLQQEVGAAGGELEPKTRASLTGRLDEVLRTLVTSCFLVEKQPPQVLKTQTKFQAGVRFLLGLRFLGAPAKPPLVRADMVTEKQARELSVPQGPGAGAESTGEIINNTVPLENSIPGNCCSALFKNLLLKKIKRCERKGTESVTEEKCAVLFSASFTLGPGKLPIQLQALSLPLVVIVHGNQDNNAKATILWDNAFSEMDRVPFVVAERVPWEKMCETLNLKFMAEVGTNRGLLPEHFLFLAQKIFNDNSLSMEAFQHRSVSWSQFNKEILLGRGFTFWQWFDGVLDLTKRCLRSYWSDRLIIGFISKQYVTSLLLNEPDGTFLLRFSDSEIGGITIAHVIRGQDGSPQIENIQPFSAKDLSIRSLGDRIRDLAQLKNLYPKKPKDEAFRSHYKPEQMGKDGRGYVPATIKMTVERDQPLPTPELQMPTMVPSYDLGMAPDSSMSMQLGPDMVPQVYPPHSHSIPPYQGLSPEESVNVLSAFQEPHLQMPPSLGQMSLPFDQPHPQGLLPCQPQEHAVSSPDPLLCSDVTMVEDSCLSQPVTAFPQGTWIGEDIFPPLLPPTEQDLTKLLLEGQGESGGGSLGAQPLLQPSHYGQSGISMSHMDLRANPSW

For `Cn1c(CN2CCC(c3ccc(C(=O)N4CCC(CN5CCN(Cc6ccc7c(c6F)n(C)c(=O)n7C6CCC(=O)NC6=O)CC5)CC4)cc3)CC2)cc2c(-c3ccc(N)nc3)ccnc21` (stereo not drawn) [Example 3e14, 3-(5-((4-((1-(4-(1-((4-(6-aminopyridin-3-yl)-1-methyl-1H-pyrrolo[2,3-b]pyridin-2-yl)methyl)piperidin-4-yl)benzoyl)piperidin-4-yl)methyl)piperazin-1-yl)methyl)-4-fluoro-3-methyl-2-oxo-2,3-dihydro-1H-benzo[d]imidazol-1-yl)piperidine-2,6-dione], the DC50 (as a rule, the midpoint of the concentration-degradation curve) is 1.5 nM.
The same measure, in the same setting: to `COCCn1c(=O)n(C2CCC(=O)NC2=O)c2ccc(CN3CCN(CC4CCN(C(=O)c5ccc(C6CCN(Cc7cc8c(-c9ccc(N)nc9)ccnc8n7C)CC6)cc5)CC4)CC3)cc21` (stereo not drawn) [Example 3e7, 3-(5-((4-((1-(4-(1-((4-(6-aminopyridin-3-yl)-1-methyl-1H-pyrrolo[2,3-b]pyridin-2-yl)methyl)piperidin-4-yl)benzoyl)piperidin-4-yl)methyl)piperazin-1-yl)methyl)-3-(2-methoxyethyl)-2-oxo-2,3-dihydro-1H-benzo[d]imidazol-1-yl)piperidine-2,6-dione] belongs 9 nM.
Regarding `CNc1ccc(-c2ccnc3c2cc([C@H](C)N2CCC(c4ccc(C(=O)N5CCC(CN6CCN(Cc7ccc8c(c7)n(C)c(=O)n8C7CCC(=O)NC7=O)C[C@@H]6C)CC5)cc4)CC2)n3C)cn1` (stereo partly drawn) [Example 3h2, 3-(3-methyl-5-(((S)-3-methyl-4-((1-(4-(1-((S)-1-(1-methyl-4-(6-(methylamino)pyridin-3-yl)-1H-pyrrolo[2,3-b]pyridin-2-yl)ethyl)piperidin-4-yl)benzoyl)piperidin-4-yl)methyl)piperazin-1-yl)methyl)-2-oxo-2,3-dihydro-1H-benzo[d]imidazol-1-yl)piperidine-2,6-dione], the DC50 was found to be 0.8 nM.
Same read-out and setting: to `Cn1c(CN2CCC(c3ccc(C(=O)N4CCC(CC5CCN(Cc6ccc7c(c6)n(C)c(=O)n7C6CCC(=O)NC6=O)CC5)CC4)cc3)CC2)cc2c(-c3ccc4[nH]ncc4c3)ccnc21` (stereo not drawn) [Example 3h1, 3-(5-((4-((1-(4-(1-((4-(1H-indazol-5-yl)-1-methyl-1H-pyrrolo[2,3-b]pyridin-2-yl)methyl)-piperidin-4-yl)benzoyl)piperidin-4-yl)methyl)piperidin-1-yl)methyl)-3-methyl-2-oxo-2,3-dihydro-1H-benzo[d]imidazol-1-yl)piperidine-2,6-dione] belongs 2.4 nM.
On to `Cn1c(CN2CCC(c3ccc(C(=O)N4CCC(CN5CCN(c6ccc7c(c6)n(C)c(=O)n7C6CCC(=O)NC6=O)CC5)CC4)cc3)CC2)cc2c(-c3ccc(N)nc3)ccnc21` (stereo not drawn) [Example 3m1, 3-(5-(4-((1-(4-(1-((4-(6-aminopyridin-3-yl)-1-methyl-1H-pyrrolo[2,3-b]pyridin-2-yl)methyl)-piperidin-4-yl)benzoyl)piperidin-4-yl)methyl)piperazin-1-yl)-3-methyl-2-oxo-2,3-dihydro-1H-benzo[d]imidazol-1-yl)piperidine-2,6-dione], for which the Emax (commonly the maximal effect, on the per cent scale that the assay sets) was 40 to 50%.
On to `COCc1nc2cc(-c3ccnc4c3cc(CN3CCC(c5ccc(C(=O)N(C)c6ccc(C7CCN(Cc8ccc9c(c8)oc(=O)n9C8CCC(=O)NC8=O)CC7)cc6)cc5)CC3)n4C)ccc2[nH]1` (stereo not drawn) [Example 3n4, N-(4-(1-((3-(2,6-dioxopiperidin-3-yl)-2-oxo-2,3-dihydrobenzo[d]oxazol-6-yl)methyl)piperidin-4-yl)phenyl)-4-(1-((4-(2-(methoxymethyl)-1H-benzo[d]imidazol-5-yl)-1-methyl-1H-pyrrolo[2,3-b]pyridin-2-yl)methyl)piperidin-4-yl)-N-methylbenzamide], for which the DC50 is 0.1 nM.
Regarding `COCc1nc2cc(-c3ccnc4c3cc([C@H](C)N3CCC(c5ccc(C(=O)N6CCC(CN7CCN(Cc8ccc9c(c8)n(C)c(=O)n9C8CCC(=O)NC8=O)C[C@@H]7C)CC6)cc5)CC3)n4C)ccc2[nH]1` (stereo partly drawn) [Example 3e22, 3-(5-(((S)-4-((1-(4-(1-((S)-1-(4-(2-(methoxymethyl)-1H-benzo[d]imidazol-5-yl)-1-methyl-1H-pyrrolo[2,3-b]pyridin-2-yl)ethyl)piperidin-4-yl)benzoyl)piperidin-4-yl)methyl)-3-methylpiperazin-1-yl)methyl)-3-methyl-2-oxo-2,3-dihydro-1H-benzo[d]imidazol-1-yl)piperidine-2,6-dione], the DC50 stood at 0.3 nM.
As to `Cn1c(CN2CCC(c3ccc(C(=O)N4CCC(Cn5cc(-c6cccc7c6n(C)c(=O)n7C6CCC(=O)NC6=O)cn5)CC4)cc3)CC2)cc2c(-c3ccc4[nH]ncc4c3)ccnc21` (stereo not drawn) [Example 3l1, 3-(4-(1-((1-(4-(1-((4-(1H-indazol-5-yl)-1-methyl-1H-pyrrolo[2,3-b]pyridin-2-yl)methyl)piperidin-4-yl)benzoyl)piperidin-4-yl)methyl)-1H-pyrazol-4-yl)-3-methyl-2-oxo-2,3-dihydro-1H-benzo[d]imidazol-1-yl)piperidine-2,6-dione], the Emax fell in the range of 20 to 30%.
Still for that read-out and setting: to `Cn1c(CN2CCC(c3ccc(C(=O)N4CCC(CN5CCN(Cc6ccc7c(c6)oc(=O)n7C6CCC(=O)NC6=O)CC5)CC4)cc3)CC2)cc2c(-c3ccc(N)nc3)ccnc21` (stereo not drawn) [Example 3n1, 3-(6-((4-((1-(4-(1-((4-(6-aminopyridin-3-yl)-1-methyl-1H-pyrrolo[2,3-b]pyridin-2-yl)methyl)piperidin-4-yl)benzoyl)piperidin-4-yl)methyl)piperazin-1-yl)methyl)-2-oxobenzo[d]oxazol-3 (2H)-yl)piperidine-2,6-dione] belongs 60 to 70%.
`C[C@H]1CN(Cc2ccc3c(c2)n(C2CC2)c(=O)n3C2CCC(=O)N(C)C2=O)CCN1CC1CCN(C(=O)c2ccc(C3CCN([C@@H](C)c4cc5c(-c6ccc(N)nc6)ccnc5n4C)CC3)cc2)CC1` (stereo partly drawn) [Example 3h28, 3-(5-(((S)-4-((1-(4-(1-((S)-1-(4-(6-aminopyridin-3-yl)-1-methyl-1H-pyrrolo[2,3-b]pyridin-2-yl)ethyl)piperidin-4-yl)benzoyl)piperidin-4-yl)methyl)-3-methylpiperazin-1-yl)methyl)-3-cyclopropyl-2-oxo-2,3-dihydro-1H-benzo[d]imidazol-1-yl)-1-methylpiperidine-2,6-dione]: the Emax was 20 to 30%.
For the compound `C[C@@H](c1cc2c(-c3ccc(N)nc3)ccnc2n1C)N1CCC(c2ccc(C(=O)N3CCC(CN4CCN(Cc5ccc6c(c5)n(CC(F)(F)F)c(=O)n6C5CCC(=O)NC5=O)CC4)CC3)cc2)CC1` (stereo partly drawn) [Example 3e25, 3-(5-((4-((1-(4-(1-((S)-1-(4-(6-aminopyridin-3-yl)-1-methyl-1H-pyrrolo[2,3-b]pyridin-2-yl)ethyl)piperidin-4-yl)benzoyl)piperidin-4-yl)methyl)piperazin-1-yl)methyl)-2-oxo-3-(2,2,2-trifluoroethyl)-2,3-dihydro-1H-benzo[d]imidazol-1-yl)piperidine-2,6-dione], the 50% degradation concentration (DC50) worked out at 4 nM.
Regarding `Cn1c(CN2CCC(c3ccc(C(=O)N4CCN(CC5CCN(Cc6cccc7c6n(C)c(=O)n7C6CCC(=O)NC6=O)CC5)CC4)cc3)CC2)cc2c(-c3ccc4[nH]ncc4c3)ccnc21` (stereo not drawn) [Example 3k1, 3-(4-((4-((4-(4-(1-((4-(1H-indazol-5-yl)-1-methyl-1H-pyrrolo[2,3-b]pyridin-2-yl)methyl)-piperidin-4-yl)benzoyl)piperazin-1-yl)methyl)piperidin-1-yl)methyl)-3-methyl-2-oxo-2,3-dihydro-1H-benzo[d]imidazol-1-yl)piperidine-2,6-dione], the Emax fell in the range of 20 to 30%.
For `CNc1ccc(-c2ccnc3c2cc([C@H](C)N2CCC(c4ccc(C(=O)N5CCC(CN6CCN(Cc7ccc8c(c7)n(C)c(=O)n8[C@H]7CCC(=O)NC7=O)C[C@@H]6C)CC5)cc4)CC2)n3C)cn1` [Example 3h4, (S)-3-(3-methyl-5-(((S)-3-methyl-4-((1-(4-(1-((S)-1-(1-methyl-4-(6-(methylamino)pyridin-3-yl)-1H-pyrrolo[2,3-b]pyridin-2-yl)ethyl)piperidin-4-yl)benzoyl)piperidin-4-yl)methyl)piperazin-1-yl)methyl)-2-oxo-2,3-dihydro-1H-benzo[d]imidazol-1-yl)piperidine-2,6-dione], the DC50 was 1 nM.
For the compound “3-(4-((4-((1-(4-(1-((4-(1H-indazol-5-yl)-1-methyl-1H-pyrrolo[2,3-b]pyridin-2-yl)methyl)-piperidin-4-yl)benzoyl)piperidin-4-yl)methyl)piperidin-1-yl)methyl)-3-(2-methoxyethyl)-2-oxo-2,3-dihydro-1H-benzo[d]imidazol-1-yl)piperidine-2,6-dione [Example 3i2]”, the “STAT6 degradation Emax (%)” value was 40-50%.
Consider `Cn1c(CN2CCC(c3ccc(C(=O)N4CCC(CN5CCN(Cc6cccc7c6n(C)c(=O)n7C6CCC(=O)NC6=O)CC5)CC4)cc3)CC2)cc2c(-c3ccc4[nH]ncc4c3)ccnc21` (stereo not drawn) [Example 3i1, 3-(4-((4-((1-(4-(1-((4-(1H-indazol-5-yl)-1-methyl-1H-pyrrolo[2,3-b]pyridin-2-yl)methyl)-piperidin-4-yl)benzoyl)piperidin-4-yl)methyl)piperazin-1-yl)methyl)-3-methyl-2-oxo-2,3-dihydro-1H-benzo[d]imidazol-1-yl)piperidine-2,6-dione], for which the Emax was in the range of 50 to 60%.

The values are drawn from patent US20250325677A1, “STAT6 DEGRADERS” (Gilead Sciences, Inc., priority 2024, published 2025).
